Source: patent EP4772505A1, “COMPOUND FOR DEGRADING ANDROGEN RECEPTOR AND MEDICAL USE THEREOF” (Ubix Therapeutics, Inc., priority 2023, dated 2025)
Like-named read-outs stand apart in the source and are kept apart here.

Experiment: Plasma and tumor tissue concentrations following oral administration in VCaP xenograft model (HPLC/MS/MS)
Assay type: in vivo, mice
Conditions: mouse, 10 mg/kg orally once daily for 3 days
Procedure: The plasma and tumor tissue concentrations of the drug administered orally to a xenograft model using VCaP cells were analyzed as follows.
[Blood collection and tumor tissue extraction] The prepared drug was administered orally at a dose of 10 mg/kg once daily at the same time for 3 days. The mice were sacrificed 2, 6, and 24 hours after the last administration. Blood collection and tumor tissue extraction were performed immediately after sacrifice at each hour. Blood collected from the heart was placed in a K2EDTA tube for 30 minutes and then centrifuged at 15,000 rpm at 4°C for 10 minutes. The supernatant plasma was separated and stored at -20°C for analysis. The extracted tumor tissue was washed in PBS, cut into pieces of approximately 10 mg, and stored at -80°C for analysis.
[Sample Preparation] Cancer tissue was homogenized once at 5,500 rpm for 20 seconds after adding distilled water 9 times the tissue weight using a tissue homogenizer (Precellys Evolution, Bertin Technology). For cancer tissue, 20 µL of the homogenate was mixed with 20 µL of blank plasma sample, 20 µL of internal standard (carbamazepine, 30 ng/mL in acetonitrile), and 140 µL of acetonitrile. For plasma, 20 µL of the plasma sample was mixed with 20 µL of blank liver tissue sample, 20 µL of internal standard, and 140 µL of acetonitrile. Afterwards, the mixed sample was suspended for 10 minutes using a vortex mixer and centrifuged at 13,500 rpm for 10 minutes at room temperature. 140 µL of the supernatant was collected and transferred to an analysis container.
[Sample Analysis] Drug concentrations in cancer tissue and plasma samples were quantified using an HPLC/MS/MS system. 5 µL of the sample prepared in the analytical vessel was injected into the HPLC/MS/MS system for analysis. For drug quantification, a combination of 0.1% formic acid in distilled water and 0.1% formic acid in acetonitrile was used as the mobile phase. The analytical column used was a reverse-phase C18 column, and chromatograms were analyzed using isocratic elution. Ion detection was performed in ESI positive MRM mode, and peak integration was performed using Analyst software version 1.6.4 (Applied Biosystems/MDS SCIEX). Drug concentrations in cancer tissue were calculated by multiplying the concentrations obtained from the analysis of cancer tissue homogenate by a dilution factor of 10.

Structure (SMILES): N#Cc1ccc(N2CCC(C(=O)Nc3ccc(OC4CCN(CC5CCN(c6ccc(N[C@H]7CCC(=O)NC7=O)cc6F)CC5)CC4)cn3)CC2)cc1C(F)(F)F [Example 2, (S)-1-(4-cyano-3-(trifluoromethyl)phenyl)-N-(5-((1-((1-(4-((2,6-dioxopiperidin-3-yl)amino)-2-fluorophenyl)piperidin-4-yl)methyl)piperidin-4-yl)oxy)pyridin-2-yl)piperidine-4-carboxamide]
- concentration at 2 h (plasma, 2 hours after the last administration, read-out: Concentration in Plasma): 0.816 µg/mL
- concentration at 6 h (plasma, 6 hours after the last administration, read-out: Concentration in Plasma): 0.61 µg/mL
- concentration at 24 h (plasma, 24 hours after the last administration, read-out: Concentration in Plasma): 0.051 µg/mL
- Kp at 2 h (tumor tissue / plasma, 2 hours after the last administration, read-out: Tissue to Plasma Ratio): 6.78
- Kp at 6 h (tumor tissue / plasma, 6 hours after the last administration, read-out: Tissue to Plasma Ratio): 10.1
- Kp at 24 h (tumor tissue / plasma, 24 hours after the last administration, read-out: Tissue to Plasma Ratio): 16.3
- concentration at 2 h (tumor tissue, 2 hours after the last administration, read-out: Concentration in Tumor Tissue): 5560 ng/g
- concentration at 6 h (tumor tissue, 6 hours after the last administration, read-out: Concentration in Tumor Tissue): 6130 ng/g
- concentration at 24 h (tumor tissue, 24 hours after the last administration, read-out: Concentration in Tumor Tissue): 834 ng/g
